Test results published in US10793557B2, “Sting agonist compounds” (Merck Sharp & Dohme Corp., priority 2018, dated 2020).
One block for each compound: values may come before it.

Columns and labels:
full-length HAQ STING = molecular target: T1, full-length HAQ STING (Homo sapiens, UniProt Q86WV6, G230A/H232R/R293Q/R71H); experiment: 3H-cGAMP filtration binding assay (HAQ STING); conditions: competition with tritiated cGAMP, HAQ STING membrane
T1 construct: AviTag (after GG linker) (C); HRV3C cleavage site (after GS linker) (C); HIS8 (C); made in house; host or cells: Trichoplusia ni (Hi-Five) insect cells infected with baculovirus (virus generated and amplified in Sf21 cells); used as a washed membrane preparation
Method in brief: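 Hi-Five (T. ni) membranes overexpressing the STING variant (2.2 ug/ml working) preincubated with compound 60 min at RT in PBS, then [3H]cGAMP (8 nM working stock) added for 60 min at RT. Bound radioactivity captured on GF/B filters and counted by scintillation; EC50 from 4-parameter fit of control-normalized activity.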

[1] = tested on: secretion of interferon-beta from THP1 cells; experiment: IFN-β secretion in THP1 cell culture (5 h); type: cell-based; conditions: Homo sapiens, THP-1, 5 h, 30 uM cGAMP = 100%; for activation at 30 µM: compound at 30 μM, read-out: % Effect at 30 μM relative to 2′3′-cGAMP; for activation at 3 µM: compound at 3 uM, read-out: % Effect relative to 2′3′-cGAMP (@ 3 uM)
Method in brief: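 Thawed THP1 cells (0.8×10^6/mL, RPMI with 0.5% FBS) exposed to compounds 1.5–30000 nM (0.3% DMSO) for 5 h at 37 °C. Supernatant IFN-β quantified by AlphaLISA. Percent effect normalised to 30 uM cGAMP and DMSO controls; EC50 from 4-parameter fit.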

full-length WT STING = molecular target: T2, full-length WT STING (Homo sapiens, UniProt Q86WV6, H232R); experiment: 3H-cGAMP filtration binding assay (WT STING); conditions: for EC50: competition with tritiated cGAMP, WT STING membrane; for inhibition at 20 µM: at 20,000 nM compound
T2 construct: AviTag (after gg linker) (C); HRV3C cleavage site (after gs linker) (C); HIS8 (C); made in house; host or cells: Trichoplusia ni (Hi-Five) insect cells infected with baculovirus (virus generated and amplified in Sf21 cells); used as a washed membrane preparation
Method in brief: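 Competitive filtration binding of [3H]cGAMP (16 nM working stock) to T. ni membranes overexpressing full-length WT human STING, 60 min at RT in PBS. Bound radioactivity counted after GF/B filtration; 10-point 1:3 titration, EC50 from 4-parameter fit after control normalisation.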

T1 sequence (Q86WV6 with tags, fused parts or gaps R71H/G230A/H232R/R293Q): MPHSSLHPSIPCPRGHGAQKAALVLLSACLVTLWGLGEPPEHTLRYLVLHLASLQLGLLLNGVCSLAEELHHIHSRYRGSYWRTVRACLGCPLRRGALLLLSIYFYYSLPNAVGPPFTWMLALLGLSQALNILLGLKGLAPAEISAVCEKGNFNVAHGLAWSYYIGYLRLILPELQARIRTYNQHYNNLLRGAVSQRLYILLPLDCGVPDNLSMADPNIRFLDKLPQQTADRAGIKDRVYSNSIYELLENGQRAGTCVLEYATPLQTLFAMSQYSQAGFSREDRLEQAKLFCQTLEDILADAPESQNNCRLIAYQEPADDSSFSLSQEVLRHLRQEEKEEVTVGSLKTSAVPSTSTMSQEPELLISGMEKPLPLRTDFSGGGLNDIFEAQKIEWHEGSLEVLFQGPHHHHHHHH
T2 sequence (Q86WV6 with tags, fused parts or gaps H232R): as the sequence (Q86WV6 with tags, fused parts or gaps R71H/G230A/H232R/R293Q) above, with H71R, A230G, Q293R counted along it

SMILES: COc1cc2sc(C(=O)C[C@H](C)C(=O)O)cc2cc1OCCCOc1cc2sc(C(=O)C[C@H](C)C(=O)O)cc2nc1OC [Example 166, (S)-4-(5-(3-((2-((S)-3-carboxybutanoyl)-5-methoxythieno[3,2-b]pyridin-6-yl)oxy)propoxy)-6-methoxybenzo[b]thiophen-2-yl)-2-methyl-4-oxobutanoic acid]
EC50 (full-length HAQ STING): 8 nM
activation at 30 µM [1]: 34%
EC50 (full-length WT STING): 117 nM

SMILES: COc1cc2sc(CC[C@H](C)C(=O)O)cc2c(F)c1OCCCOc1cc2cc(C(=O)C[C@H](C)C(=O)O)sc2cc1O [Example 181, (S)-4-(5-(3-((2-((S)-3-carboxybutyl)-4-fluoro-6-methoxybenzo[b]thiophen-5-yl)oxy)propoxy)-6-hydroxybenzo[b]thiophen-2-yl)-2-methyl-4-oxobutanoic acid]
EC50 (full-length HAQ STING): 5 nM
activation at 3 µM [1]: 104%
EC50 (full-length WT STING): 177 nM

SMILES: COc1cc2cc(C(=O)C[C@H](C)C(=O)O)sc2cc1OCCCOc1c(OC)cc2sc(C(=O)[C@@H]3CC[C@H]3C(=O)O)cc2c1F [Example 171, trans-2-(5-(3-((2-((S)-3-carboxybutanoyl)-5-methoxybenzo[b]thiophen-6-yl)oxy)propoxy)-4-fluoro-6-methoxybenzo[b]thiophene-2-carbonyl)cyclobutanecarboxylic acid]
EC50 (full-length HAQ STING): 9 nM
activation at 30 µM [1]: 97%
EC50 (full-length WT STING): 59 nM

SMILES: COc1cc2sc(C(=O)C[C@H](C)C(=O)O)cc2cc1OCCCOc1cc2cc(C(=O)[C@H]3C[C@@H]3C(=O)O)sc2cc1OC (racemic) [Example 68, rac-(1R,2R)-2-(5-(3-((2-((R)-3-carboxybutanoyl)-6-methoxybenzo[b]thiophen-5-yl)oxy)propoxy)-6-methoxybenzo[b]thiophene-2-carbonyl)cyclopropane-1-carboxylic acid]
EC50 (full-length HAQ STING): 50 nM
activation at 30 µM [1]: 24%
EC50 (full-length WT STING): 443 nM

SMILES: COc1cc2sc(CC[C@H](C)C(=O)O)cc2c(F)c1OCCCOc1c(OC)cc2sc(C(=O)C[C@H](C)C(=O)O)cc2c1Cl [Example 147, (S)-4-(5-(3-((2-((S)-3-carboxybutyl)-4-fluoro-6-methoxybenzo[b]thiophen-5-yl)oxy)propoxy)-4-chloro-6-methoxybenzo[b]thiophen-2-yl)-2-methyl-4-oxobutanoic acid]
EC50 (full-length HAQ STING): 18 nM
activation at 3 µM [1]: 71%
EC50 (full-length WT STING): 207 nM

SMILES: COc1cc2sc(C(=O)CCC(=O)O)cc2cc1OCCOc1cc2cc(C(=O)CCC(=O)O)sc2cc1OC [Example 38, 4,4′-((ethane-1,2-diylbis (oxy))bis(6-methoxybenzo [b]thiophene-5,2-diyl))bis(4-oxobutanoic acid)]
EC50 (full-length HAQ STING): 695 nM
activation at 30 µM [1]: 17%
EC50 (full-length WT STING): 1040 nM

SMILES: COc1cc2sc(C(=O)C[C@H](C)C(=O)O)cc2cc1CCCOc1nc2cc(C(=O)C[C@H](C)C(=O)O)sc2cc1OC [Example 16, (S)-4-(5-(3-(2-((S)-3-carboxybutanoyl)-6-methoxybenzo [b]thiophen-5-yl)propoxy)-6-methoxythieno[3,2-b]pyridin-2-yl)-2-methyl-4-oxobutanoic acid]
EC50 (full-length HAQ STING): 22 nM
activation at 30 µM [1]: 70%
EC50 (full-length WT STING): 51 nM

SMILES: COc1cc2cc(C(=O)C[C@H](C)C(=O)O)sc2cc1OCCCCCCOc1cc2sc(C(=O)C[C@H](C)C(=O)O)cc2cc1OC [Example 112, (2S,2′S)-4,4′-(6,6′-(hexane-1,6-diylbis(oxy))bis(5-methoxybenzo[b]thiophene-6,2-diyl))bis(2-methyl-4-oxobutanoic acid)]
EC50 (full-length HAQ STING): 15500 nM
activation at 30 µM [1]: 23%
inhibition at 20 µM (full-length WT STING): 11%

SMILES: COc1cc2sc(C(=O)C[C@H](C)C(=O)O)cc2c(F)c1OCCCCOc1c(OC)cc2sc(C(=O)C[C@H](C)C(=O)O)cc2c1Cl [Example 130, (S)-4-(5-(4-((2-((S)-3-carboxybutanoyl)-4-chloro-6-methoxybenzo[b]thiophen-5-yl)oxy)butoxy)-4-fluoro-6-methoxybenzo[b]thiophen-2-yl)-2-methyl-4-oxobutanoic acid]
EC50 (full-length HAQ STING): 3 nM
activation at 30 µM [1]: 61%
EC50 (full-length WT STING): 25 nM

SMILES: COc1cc2sc(C(=O)CCC#N)cc2cc1CCCc1cc2cc(C(=O)CCC(=O)O)sc2cc1OC [Example 24, 4-(5-(3-(2-(3-cyanopropanoyl)-6-methoxybenzo[b]thiophen-5-yl)propyl)-6-methoxybenzo[b]thiophen-2-yl)-4-oxobutanoic acid]
EC50 (full-length HAQ STING): 17800 nM
activation at 30 µM [1]: 150%
inhibition at 20 µM (full-length WT STING): 39%

SMILES: COc1cc2sc(C(=O)CCC(=O)O)cc2cc1OCCCc1nc2cc(C(=O)CCC(=O)O)sc2cc1OC [Example 13, 4-(5-(3-((2-(3-carboxypropanoyl)-6-methoxybenzo[b]thiophen-5-yl)oxy)propyl)-6-methoxythieno[3,2-b]pyridin-2-yl)-4-oxobutanoic acid]
EC50 (full-length HAQ STING): 158 nM
activation at 30 µM [1]: 67%
EC50 (full-length WT STING): 625 nM

SMILES: COc1cc2sc(C(=O)C[C@H](C)C(=O)O)cc2c(Cl)c1OCCCOc1c(OC)cc2sc(C(=O)C[C@H](C)C(=O)O)cc2c1Br [Example 133, (S)-4-(5-(3-((4-bromo-2-((S)-3-carboxybutanoyl)-6-methoxybenzo[b]thiophen-5-yl)oxy)propoxy)-4-chloro-6-methoxybenzo[b]thiophen-2-yl)-2-methyl-4-oxobutanoic acid]
EC50 (full-length HAQ STING): 15 nM
activation at 30 µM [1]: 80%
EC50 (full-length WT STING): 147 nM

The next lines start with results.

EC50 (full-length HAQ STING): 2 nM
EC50 (full-length WT STING): 23 nM
SMILES: COc1cc2sc(C(=O)C[C@H](C)C(=O)O)cc2cc1CCCOc1c(OC)cc2sc(C(=O)[C@@H]3CCC3C(=O)O)cc2c1F (stereo partly drawn) [Example 113, trans-2-(5-(3-(2-((S)-3-carboxybutanoyl)-6-methoxybenzo[b]thiophen-5-yl)propoxy)-4-fluoro-6-methoxybenzo[b]thiophene-2-carbonyl)cyclobutane carboxylic acid]
activation at 30 µM [1]: 93%

EC50 (full-length HAQ STING): 1 nM
EC50 (full-length WT STING): 5 nM
SMILES: COc1cc2cc(C(=O)CCC(=O)O)sc2cc1OCCCOc1c(OC)cc2sc(C(=O)CCC(=O)O)cc2c1F [Example 125, 4-(6-(3-((2-(3-carboxypropanoyl)-4-fluoro-6-methoxybenzo[b]thiophen-5-yl)oxy)propoxy)-5-methoxybenzo[b]thiophen-2-yl)-4-oxobutanoic acid]
activation at 30 µM [1]: 156%

EC50 (full-length HAQ STING): 1 nM
EC50 (full-length WT STING): 5 nM
SMILES: COc1cc2sc(C(=O)C[C@H](C)C(=O)O)cc2nc1OCCCOc1c(OC)cc2sc(C(=O)CCC(=O)O)cc2c1F [Example 21, (S)-4-(5-(3-((2-(3-carboxypropanoyl)-4-fluoro-6-methoxybenzo[b]thiophen-5-yl)oxy)propoxy)-6-methoxythieno[3,2-b]pyridin-2-yl)-2-methyl-4-oxobutanoic acid]
activation at 30 µM [1]: 59%

EC50 (full-length HAQ STING): 2 nM
EC50 (full-length WT STING): 2 nM
SMILES: COc1cc2sc(C(=O)C[C@H](C)C(=O)O)cc2c(F)c1OCCC(C)Oc1c(OC)cc2sc(C(=O)C[C@H](C)C(=O)O)cc2c1F (stereo partly drawn) [Example 138, (2S,2′S)-4,4′-((butane-1,3-diylbis(oxy))bis(4-fluoro-6-methoxybenzo[b]thiophene-5,2-diyl))bis(2-methyl-4-oxobutanoic acid)]
activation at 30 µM [1]: 89%

EC50 (full-length HAQ STING): 3 nM
EC50 (full-length WT STING): 7 nM
SMILES: COc1cc2sc(C(=O)C[C@H](C)C(=O)O)cc2cc1OCCCCOc1cc2cc(C(=O)C[C@H](C)C(=O)O)sc2cc1OC [Example 92, (2S,2′S)-4,4′-(5,5′-(butane-1,4-diylbis(oxy))bis(6-methoxybenzo[b]thiophene-5,2-diyl))bis(2-methyl-4-oxobutanoic acid)]
activation at 30 µM [1]: 62%

EC50 (full-length HAQ STING): 1 nM
EC50 (full-length WT STING): 1 nM
SMILES: COc1cc2sc(C(=O)C[C@H](C)C(=O)O)cc2c(F)c1CCCOc1c(OC)cc2sc(C(=O)C[C@H](C)C(=O)O)cc2c1F [Example 164, (S)-4-(5-(3-((2-((S)-3-carboxybutanoyl)-4-fluoro-6-methoxybenzo[b]thiophen-5-yl)oxy)propyl)-4-fluoro-6-methoxybenzo[b]thiophen-2-yl)-2-methyl-4-oxobutanoic acid]
activation at 30 µM [1]: 131%

EC50 (full-length HAQ STING): 4 nM
EC50 (full-length WT STING): 46 nM
SMILES: COc1cc2sc(C(=O)C[C@H](C)C(=O)O)cc2c(Cl)c1OCCCOc1c(O)cc2sc(C(=O)C[C@H](C)C(=O)O)cc2c1Cl [Example 187, (S)-4-(5-(3-((2-((S)-3-carboxybutanoyl)-4-chloro-6-hydroxybenzo[b]thiophen-5-yl)oxy)propoxy)-4-chloro-6-methoxybenzo[b]thiophen-2-yl)-2-methyl-4-oxobutanoic acid]
activation at 3 µM [1]: 128%
